The test concerns Carrageenan-induced thermal hyperalgesia. The experiment in a line: carrageenan rat footpad thermal hyperalgesia test (Hargreaves test). The format is in vivo.

Molecules are shown by their SMILES.

Method: In this example, gabapentin, naproxen sodium, and the combination of gabapentin and naproxen sodium were evaluated in a standard rat carrageenan footpad thermal hyperalgesia assay. This assay utilizes an extract of seaweed (carrageenan) that, when injected into the footpad of test animals, causes a sterile inflammation, thereby lowering the pain threshold.
Male Sprague-Dawley rats (200-250 g, Sasco Laboratories) were used. Rats were group housed 5/cage on a 12-hour light:dark cycle with free access to food and water. Rats received only one dose of a drug or drug combination. All drugs were administered orally by gavage.
Dose-effect curves were first determined for (1) gabapentin by itself and (2) a prototypic NSAID (e.g., naproxen) by itself The ED50 value and 95% confidence limits of each agent was determined, as was the time to peak effect. […]
Carrageenan-induced thermal hyperalgesia: Rats were acclimated to a testing chamber whose glass floor was maintained at 25° C. Thirty minutes later, a high intensity beam of light was focused through the glass on the ventral surface of each hindpaw, and the latency to reflex withdrawal of the paw from the light beam was measured to the nearest 0.1 second. […]
Data were expressed as the mean ±SEM. […]

Broadly, the ED50 is the midpoint of the dose-response relation. Turning to `COc1ccc2cc([C@H](C)C(=O)O)ccc2c1` [Naproxen sodium, naproxen sodium], the anti-hyperalgesic action result (PO, gabapentin 3-100 mg/kg, naproxen sodium 0.3-30 mg/kg, fixed-ratio combinations at various dosages) was “anti-hyperalgesic actions”. Besides, the ED50 (Rattus norvegicus, 2 h, single drug, oral gavage, male Sprague-Dawley rats, paw flick latency 120 min after dosing, 95% confidence limits in parentheses) turned out to be 0.36 mg/kg.
